According to US20240384232A1, “CLINICAL-GRADE THERAPEUTIC PROGENITORS GENERATED FROM TANKYRASE/PARP-INHIBITED PLURIPOTENT STEM CELL BANKS” (THE JOHNS HOPKINS UNIVERSITY, priority 2022, published 2024):
Entries after “also recorded” stand apart in the source; their conditions may differ.

Legend:
E5C3 CB-hiPSC = experiment: Retention of TRA-1-81+SSEA4+ phenotype by FACS after removing single inhibitors from LIF-4i; type: cell-based, human; conditions: for Effect of removing the inhibitor from LIF-4i on the TRA-1-81+SSEA4+ phenotype: E5C3 kept in LIF-4i for 3 passages (6 days), then inhibitor removed, feeder-free
Text: FIGS. 8A-8C. […] Alternatively, E5C3 CB-hiPSC were maintained in LIF-4i for 3passages (6 days) and then cither XAV939 (E5C3-XAV939, square datapoints, dotted line) or Go6983 (E5C3 LIF-3i, triangles, dashed line) were removed from the LIF-4i formulation. […] (8B) Representative photomicrographs and flow cytometry plots of CB-hiPSC when continuously cultured in LIF-4i (LIF+4i, 6 passages), or when cultured in LIF-4i for 3 passages and then transferred into FF conditions that omitted for 3 passages the PKC inhibitor Go6983 (LIF+3i) or the tankyrase/PARP inhibitor XAV939 (without XAV939) or without XAV939 and reducing the concentration of CHIR99021 (without XAV939, CHIR 1 uM).

[1] = test system: tankyrase PARylating activity and PARP1-mediated PARylation; conditions: 293T cells; cited from earlier work
[2] = test system: tankyrases 1 and 2 (TANK 1/2) and AXIN-1 proteins; experiment: Western blot of tankyrase-regulated proteins in primed vs LIF-4i TIRN cultures; type: cell-based, human; conditions: LIF-4i (contains XAV939) vs isogenic primed E8
Protocol: Western blots were performed of primed vs. TIRN lysates of hESC RUES02 and three independent XF/FF UTIRN CB-hiPSC lines (E32C1XF, E32C4XF, E32C6XF). ACTIN, HSP90 and total STAT3 served as internal loading controls. Western blots of XAV939-inhibited proteolysis of tankyrases 1 and 2(TANK 1/2) and AXIN-1 proteins in isogenic primed vs. TIRN conditions for TIRN-reverted RUES02 and XF/FF CB-hiPSC lines. Western blot analysis of hPSC lines in primed (E8) and naïve (LIF-4i) cultures for expression of phosphorylated (phospho.) STAT3 and ERK1/2, tankyrase 1/2 and axin1.
Cell lysates were prepared from parallel primed (E8) and TIRN (LIF-4i) cultures and 20 or 35 ug of proteins were loaded per lane.

[3] = test system: LIF-4i UTIRN-CB-hiPSC (E32C6XF); experiment: Cell attachment during passaging onto Vitronectin-XF-coated plates; type: cell-based, human; conditions: overnight exposure, 2-5 uM
Text: FIGS. 9A-9C. Optimization of the transition step from E8 primed hPSC conditions to LIF-4i TIRN conditions: clonal cell passaging. (9A) Clonal efficiency during the first passage in LIF-4i TIRN conditions for hESC line (RUES01). Supplementation of LIF-3i with forskolin and purmophamine (i.e., LIF-5i) and brief adaptation of primed hPSC was previously shown to facilitate clonal transition and survival of primed cells to TIRN hPSC when subsequently cultured continuously in LIF-3i TIRN conditions on feeders. […] Therefore, the brief LIF-5i adaptation period was limited to only overnight exposure prior to passaging. […] (9A—middle, right panels) In contrast, high density culture in E8 (e.g., up to 6 days) prior to passaging in LIF-4i negatively impacted the transition into LIF-4i TIRN conditions. Photomicrographs represent primed cultures immediately prior to passaging into LIF-4i TIRN conditions. (9B) Requirement for ROCK inhibitor Y27632during passaging.
FIG. 7A outlines the transition between primed (i.e. E8) and the LIF-4i FF-TIRN-reverted system. Upon passaging into LIF-4i, hPSC immediately adopt a smaller dome-shaped morphology that expands from single cells. Photomicrographs document the morphology of the hiPSC line 6.2 during the first passages into LIF-4i (bulk passaging without colony picking) and after stable expansion for 10 consecutive passages (FIG. 7B). […]

[4] = test system: Primed E8 and LIF-4i UTIRN-hiPSC; experiment: DNA damage induction with radiomimetic, Western blot of DNA repair machinery; type: cell-based, human; conditions: 4 hours treatment; TIRN-hPSC vs primed E8 hPSC
Text: FIGS. 20A-20B. Induction of DNA damage in primed hPSC and XF/FF UTIRN-hPSC following exposure to the radiomimetic DNA damage inducing agent neocarzinostatin (NCS). Unlike somatic cells, naïve mouse embryonic stem cells (ESC) employ homologous recombination machinery to repair double strand breaks. However, imbalanced levels of DNAPKc in mouse ESC results into poor capacity for rejoining of radiation-induced DNA double-strand breaks in comparison to human primed ESC.
Methods. Conventional (primed) XF CB-hiPSC lines and control H9 hESC were grown in E8 medium. Isogenic TIRN-hPSC were cultured in parallel using LIF-4i. For Western blotting, whole cell lysates were prepared in RIPA buffer, 1.5 mM EDTA with protease inhibitor. Protein lysates were quantified using the BCA assay. Equal amounts of total protein lysate (e.g., 20 μg) were loaded into precast polyacrylamide gradient gels, size-separated using the Mini-PROTEAN electrophoresis system and blotted onto PDVF membranes for chemiluminescent analysis. Primed hPSC and isogenic TIRN-hPSC were assayed for endogenous DNA damage during routine culture (FIG. 20) or upon DSB induction using the radiomimetic agent neocarzinostatin (NCS). In these experiments, hPSC were treated for 4 hours with NCS before preparing lysates. […]

**Q.** With `Cc1cnc(-c2cnc(NCCNc3ccc(C#N)cn3)nc2-c2ccc(Cl)cc2Cl)[nH]1` [CHIR99021, 6-[[2-[[4-(2,4-Dichlorophenyl)-5-(5-methyl-1H-imidazol-2-yl)-2-pyrimidinyl]amino]ethyl]amino]-3-pyridinecarbonitrile] as the compound, how does the “Rescue of XAV939 depletion by reduced CHIR99021 concentration” value (E5C3 CB-hiPSC; E5C3, without XAV939, CHIR99021 @ 1 uM) read?
**A.** not rescued

**Q.** For `COc1ccc2c(c1)c(C1=C(c3c[nH]c4ccccc34)C(=O)NC1=O)cn2CCCN(C)C` [Go6983], which “Effect of removing the inhibitor from LIF-4i on the TRA-1-81+SSEA4+ phenotype” value (E5C3 CB-hiPSC) is on record?
**A.** hiPSC started differentiating after a few days without Go6983

**Q.** Which “Effect on tankyrase and PARP1-mediated PARylation” value [1] does the source give for `Oc1nc(-c2ccc(C(F)(F)F)cc2)nc2c1CSCC2` [XAV939] here?
**A.** downregulate tankyrase PARylating activity, but also PARP1-mediated PARylation

**Q.** What about the “Effect of removing the inhibitor from LIF-4i on the TRA-1-81+SSEA4+ phenotype” value (E5C3 CB-hiPSC) of the same compound?
**A.** rapid loss of TRA-1-81 and SSEA4 expression

**Q.** And the “Levels of tankyrase-PARylation-regulated proteins (AXIN1, tankyrases)” value [2]?
**A.** tankyrase auto-PARylation and proteolysis is inhibited by XAV939; also recorded: upregulated

**Q.** For `C[C@@H](N)[C@H]1CC[C@H](C(=O)Nc2ccncc2)CC1` [Y-27632], which “Promotion of cell attachment during passaging” value [3] is on record?
**A.** sufficient and required to promote efficient attachment

**Q.** Which “phospho-H2AX response to DSB induction” value [4] does the source give for neocarzinostatin [NCS] here?
**A.** elevated levels of phospho-H2AX
